Legend:
[1] = test system: S. aureus ATCC 6538; experiment: quantitative suspension assay of mono-substances; type: cell-based, Staphylococcus aureus; conditions: for Number of CFUs: initial cell load 9.5 × 10^4 CFU/ml
Method in brief: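 Hydroxytyrosol, uvaol and erythrodiol were tested at 2 mg/ml stock plus dilutions to 0.125 mg/ml (solvent methanol or chloroform, in water). Oleocanthal was tested at 1–0.125 mg/ml and oleacin at 0.25 and 0.125 mg/ml in ethanol/water. Inocula were ~100,000 CFU/ml at 20–25° C, sampled from 0 min to 72 h and plated on blood agar.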

[2] = solubility as encountered during the assays; type: physicochemical
From the text: The reduction at the later points in time is due to the natural loss of viability of the bacteria.

CC1(C)CC[C@]2(CO)CC[C@]3(C)C(=CC[C@@H]4[C@@]5(C)CC[C@H](O)C(C)(C)[C@@H]5CC[C@]43C)[C@@H]2C1 [erythrodiol]
Number of CFUs ([1]; 0.125 Ery/ml, t 0 min): >10^4 CFU/ml
Number of CFUs ([1]; 0.125 Ery/ml, t 12 min): >10^4 CFU/ml
Number of CFUs ([1]; 0.125 Ery/ml, t 30 min): >10^4 CFU/ml
Number of CFUs ([1]; 0.125 Ery/ml, t 60 min): >10^4 CFU/ml
Number of CFUs ([1]; 0.125 Ery/ml, t 24 h): >10^4 CFU/ml
Number of CFUs ([1]; 0.125 Ery/ml, t 48 h): >10^4 CFU/ml
Number of CFUs ([1]; 0.125 Ery/ml, t 72 h): >10^4 CFU/ml
Number of CFUs ([1]; 0.25 Ery/ml, t 0 min): 2.8 × 10^4 CFU/ml
Number of CFUs ([1]; 0.25 Ery/ml, t 12 min): 2.9 × 10^4 CFU/ml
Number of CFUs ([1]; 0.25 Ery/ml, t 30 min): 2.0 × 10^4 CFU/ml
Number of CFUs ([1]; 0.25 Ery/ml, t 60 min): 1.7 × 10^4 CFU/ml
Number of CFUs ([1]; 0.25 Ery/ml, t 24 h): >10^4 CFU/ml
Number of CFUs ([1]; 0.25 Ery/ml, t 48 h): >10^4 CFU/ml
Number of CFUs ([1]; 0.25 Ery/ml, t 72 h): >10^4 CFU/ml
Number of CFUs ([1]; 0.5 Ery/ml, t 0 min): 1.9 × 10^4 CFU/ml
Number of CFUs ([1]; 0.5 Ery/ml, t 12 min): 2.0 × 10^4 CFU/ml
Number of CFUs ([1]; 0.5 Ery/ml, t 30 min): 1.8 × 10^4 CFU/ml
Number of CFUs ([1]; 0.5 Ery/ml, t 60 min): 1.0 × 10^4 CFU/ml
Number of CFUs ([1]; 0.5 Ery/ml, t 24 h): >10^4 CFU/ml
Number of CFUs ([1]; 0.5 Ery/ml, t 48 h): >10^4 CFU/ml
Number of CFUs ([1]; 0.5 Ery/ml, t 72 h): >10^4 CFU/ml
Number of CFUs ([1]; 1.0 Ery/ml, t 0 min): <100 CFU/ml
Number of CFUs ([1]; 1.0 Ery/ml, t 12 min): <100 CFU/ml
Number of CFUs ([1]; 1.0 Ery/ml, t 30 min): <100 CFU/ml
Number of CFUs ([1]; 1.0 Ery/ml, t 60 min): <100 CFU/ml
Number of CFUs ([1]; 1.0 Ery/ml, t 24 h): 1.7 × 10^4 CFU/ml
Number of CFUs ([1]; 1.0 Ery/ml, t 48 h): 1.0 × 10^4 CFU/ml
Number of CFUs ([1]; 1.0 Ery/ml, t 72 h): 8.8 × 10^3 CFU/ml
Number of CFUs ([1]; 2.0 Ery/ml, t 0 min): <100 CFU/ml
Number of CFUs ([1]; 2.0 Ery/ml, t 12 min): <100 CFU/ml
Number of CFUs ([1]; 2.0 Ery/ml, t 30 min): <100 CFU/ml
Number of CFUs ([1]; 2.0 Ery/ml, t 60 min): <100 CFU/ml
Number of CFUs ([1]; 2.0 Ery/ml, t 24 h): 8.2 × 10^3 CFU/ml
Number of CFUs ([1]; 2.0 Ery/ml, t 48 h): <100 CFU/ml
Number of CFUs ([1]; 2.0 Ery/ml, t 72 h): <100 CFU/ml
antimicrobial effect, summary in words ([1]; detection limit of the assay 100 CFU/ml): strong effect after incubation at concentrations of 2.0 Ery/ml
solubility [2]: poor solubility

— US20220395549A1, “COMPOSITIONS OF THE OLEA EUROPAEA V. SYLVESTRIS WITH ANTIMICROBIAL EFFICACY” (TAPROGGE GMBH, priority 2019, published 2022)
